# Source: article PMC5761210 (Journal of Pharmaceutical Analysis, 2014)
# Like-named read-outs stand apart in the source and are kept apart here.
# Columns and labels:
# [1] = EFSA report; cited from earlier work
# [2] = no reference given; cited from earlier work
# [3] = format: in vitro ADME, human; conditions: for Qmax,24 h (maximal absorption: receptor fluid + epidermis + dermis after 24 h): percentage of the applied dose
# [4] = test system: Salmonella typhimurium; conditions: cited from earlier work
# [5] = vehicle 50% Glycerol, mean±RSD (%)
smiles,measurement,setting,value
"CC(=O)CO [acetol, 1-hydroxypropan-2-one]",genotoxic in-vivo,[1],not likely
same,log Pow,[2],−0.78
same,dose applied cumulatively found in the receptor chamber,"[3]; after 24 h, over the investigated vehicles",1.3–10.0%
same,Dm (diffusion coefficient),"[3]; vehicle 50% EtOH, mean±RSD (%)",1.49±41.8 10^−4 cm^2/h
same,Kp (permeability coefficient),"[3]; vehicle 50% EtOH, mean±RSD (%)",3.91±45.1 10^−3 cm/h
same,Lag time,"[3]; vehicle 50% EtOH, mean±RSD (%)",2.14 ± 51.8 h
same,"Qmax,24 h (maximal absorption: receptor fluid + epidermis + dermis after 24 h)","[3]; vehicle 50% EtOH, mean±RSD (%)",7.28±29.0%
same,Dm (diffusion coefficient),[3]; [5],0.73±22.4 10^−4 cm^2/h
same,Kp (permeability coefficient),[3]; [5],0.78±40.3 10^−3 cm/h
same,Lag time,[3]; [5],4.39 ± 28.7 h
same,"Qmax,24 h (maximal absorption: receptor fluid + epidermis + dermis after 24 h)",[3]; [5],1.75±39.0%
same,Dm (diffusion coefficient),"[3]; vehicle 50% PG, mean±RSD (%)",1.07±103.0 10^−4 cm^2/h
same,Kp (permeability coefficient),"[3]; vehicle 50% PG, mean±RSD (%)",1.30±79.0 10^−3 cm/h
same,Lag time,"[3]; vehicle 50% PG, mean±RSD (%)",5.65 ± 70.9 h
same,"Qmax,24 h (maximal absorption: receptor fluid + epidermis + dermis after 24 h)","[3]; vehicle 50% PG, mean±RSD (%)",2.94±76.0%
same,Jss (steady-state flux),"[3]; vehicle H2O (pure water), 5% acetol (m/V), 500 µL infinite dose, mean±RSD (%)",68.3±21.2 µg/cm^2/h
same,Dm (diffusion coefficient),"[3]; vehicle H2O, mean±RSD (%)",1.28±49.6 10^−4 cm^2/h
same,Kp (permeability coefficient),"[3]; vehicle H2O, mean±RSD (%)",1.30±21.2 10^−3 cm/h
same,Lag time,"[3]; vehicle H2O, mean±RSD (%)",2.95 ± 71.0 h
same,"Qmax,24 h (maximal absorption: receptor fluid + epidermis + dermis after 24 h)","[3]; vehicle H2O, mean±RSD (%)",3.37±11.7%
same,Kp (permeability coefficient),"[3]; vehicle PG (propylene glycol/water 50/50, V/V)",0.0013 cm/h
same,Kp (permeability coefficient),"[3]; vehicle glycerol (glycerol/water 50/50, V/V)",0.000778 cm/h
same,Kp (permeability coefficient),[3]; vehicle water,0.0013 cm/h
same,Ames tests (in-vitro mutagenic properties),[4],positive
